Where a name gives a salt, the structure may show the parent alone. Read-outs that look alike come from different tables or passages of the source.
Columns and labels:
[1] = target: HDAC6 human recombinant enzyme (Homo sapiens (Human), UniProt Q9UBN7); assay: Histone Deacetylase Assay (BPS Biosciences), HDAC6; type: biochemical
Text: Histone Deacetylase Assay (BPS Biosciences)
Histone deacetylase assay was done as per manufacturer's instructions.

CCRF-CEM = assay: cells; settings: Homo sapiens, 144 h, read-out: Anticancer profileration EC50 CCRF-CEM
Procedure: (§1) Anticancer Activity: Alamar Blue Assay
(§2) Cells were seeded at 5000 cells/per well in 96-well tissue culture plate and incubated at 37° C./5% CO2. After 16-24 hours, fresh media was added to the wells. Compounds were then (1% DMSO conc.) added to the cells at 10 concentrations ranging from 10-0.0005 uM prepared in 3-fold serial dilutions. Cells were incubated for 68-72 h at 37° C./5% CO2. Alamar Blue™ reagent was added and incubated for 1-3 hours at 37° C./5% CO2. Plates were read on fluorescence reader at 540 nm excitation, 590 nm emission wave lengths.
(§3) As described above, compounds were tested for anticancer activities in different tumor cell lines and GI50 were determined.

HEL-92.1.7 = assay: cells; settings: Homo sapiens, HEL 92.1.7, 144 h, read-out: Anticancer profileration EC50 HEL-92.1.7
Procedure: as §1
as §2, with “Cells were incubated for 68-72 h at 37° C./5% CO2.” left out
as §3

MDAMB231 = assay: cells; settings: Homo sapiens, MDA-MB-231, 144 h, read-out: Anticancer profileration EC50 MDAMB231
Procedure: as §1
as §2, with “Cells were incubated for 68-72 h at 37° C./5% CO2.” left out
as §3

A375 = assay: cells; settings: Homo sapiens, A-375, 144 h, read-out: Anticancer profileration EC50 A375
Procedure: as §1
as §2, with “Cells were incubated for 68-72 h at 37° C./5% CO2.” left out
as §3

OCI-AML3 = assay: cells; settings: Homo sapiens, OCI-AML-3, 144 h, read-out: Anticancer profileration EC50 OCI-AML3
Procedure: as §1
as §2, with “Cells were incubated for 68-72 h at 37° C./5% CO2.” left out
as §3

MV-4-11 = assay: cells; settings: Homo sapiens, MV4-11, 144 h, read-out: Anticancer profileration EC50 MV-4-11
Procedure: as §1
as §2, with “Cells were incubated for 68-72 h at 37° C./5% CO2.” left out
as §3

MM1S = assay: Anticancer activity: Alamar Blue assay, MM1S; type: cell-based; settings: Homo sapiens, MM1.S, read-out: MM1S EC50
[2] = Metabolic stability in liver microsomes, MLM; settings: 1 μM, NADPH
Procedure: (§4) The microsomal suspension was prepared by adding liver microsomes to 100 mM potassium phosphate buffer (pH7.4) to give a final protein concentration of 0.5 mg/mL. The stock solution of NCE (10 mM in DMSO) was added to the microsomes to provide a final concentration of 1 μM. […] Samples were vortexed and centrifuged at 5,000 rpm for 10 min to remove proteins. Supernatant were analyzed on LC-MS/MS.

[3] = Metabolic stability in liver microsomes, HLM; settings: 1 μM, NADPH
Procedure: as §4

LSD1 = LSD1 (Homo sapiens (Human), UniProt O60341); assay: TR-FRET Assay for LSD1; settings: read-out: LSD1 IC50
Procedure: TR-FRET Assay for LSD1 (Perkin Elmer)
Tranylcypromine (TCP), LSD1 inhibitor was procured from Selleckchem. […] Stop Solution containing 300 μM tranylcypromine in 1× LANCE Detection Buffer was added to the wells and incubated for 5 min at RT. Then, Detection mix containing 2 nM Eu-Ab and 50 nM ULight-Streptavidin in 1× LANCE Detection Buffer was prepared and added to the reaction mix. This mixture was incubated for 1 hour at room temperature.

[4] = In vivo PK studies in mice; design: species or system Male Balb/C mice; settings: for C0 / Vd / Cmax / clearance / half-life / bioavailability: male, Balb/C, mouse, plasma; for clearance: read-out: Cl IV
Procedure: In Vivo PK Studies in Mice
All the animal experiments were approved by Institutional Animal Ethical Committee (IAEC/JDC/2015/72). Male Balb/C mice (n=24) were procured from Vivo Biotech, Hyderabad, India. The animals were housed in Jubilant Biosys animal house facility in a temperature (22±2° C.) and humidity (30-70%) controlled room (15 air changes/hour) with a 12:12 h light:dark cycles, had free access to rodent feed (Altromin Spezialfutter GmbH & Co. KG., Im Seelenkamp 20, D-32791, Lage, Germany) and water for one week before using for experimental purpose. Following ˜4 h fast (during the fasting period animals had free access to water) animals were divided into two groups (n=12/group). […] Post-dosing serial blood samples (100 μL, sparse sampling was done and at each time point three mice were used for blood sampling) were collected using Micropipettes (Microcaps®; catalogue number: 1-000-0500) through tail vein into polypropylene tubes containing K2.EDTA solution as an anti-coagulant at 0.25, 0.5, 1, 2, 4, 8, 10 and 24 (for oral study) and 0.12, 0.25, 0.5, 1, 2, 4, 8 and 24 (for intravenous study). Plasma was harvested by centrifuging the blood using Biofuge (Hereaus, Germany) at 1760 g for 5 min and stored frozen at −80±10° C. until analysis. Animals were allowed to access feed 2 h post-dosing.
Plasma concentration-time data of the compound was analyzed by non-compartmental method using Phoenix WinNonlin Version 6.3 (Pharsight Corporation, Mountain View, Calif.).

[5] = PO 50 mg/kg, read-out: t1/2 PO (converted)
[6] = IV 2 mg/kg, read-out: t1/2 IV (converted)

Sequence of HDAC6 human recombinant enzyme (Q9UBN7 whole entry): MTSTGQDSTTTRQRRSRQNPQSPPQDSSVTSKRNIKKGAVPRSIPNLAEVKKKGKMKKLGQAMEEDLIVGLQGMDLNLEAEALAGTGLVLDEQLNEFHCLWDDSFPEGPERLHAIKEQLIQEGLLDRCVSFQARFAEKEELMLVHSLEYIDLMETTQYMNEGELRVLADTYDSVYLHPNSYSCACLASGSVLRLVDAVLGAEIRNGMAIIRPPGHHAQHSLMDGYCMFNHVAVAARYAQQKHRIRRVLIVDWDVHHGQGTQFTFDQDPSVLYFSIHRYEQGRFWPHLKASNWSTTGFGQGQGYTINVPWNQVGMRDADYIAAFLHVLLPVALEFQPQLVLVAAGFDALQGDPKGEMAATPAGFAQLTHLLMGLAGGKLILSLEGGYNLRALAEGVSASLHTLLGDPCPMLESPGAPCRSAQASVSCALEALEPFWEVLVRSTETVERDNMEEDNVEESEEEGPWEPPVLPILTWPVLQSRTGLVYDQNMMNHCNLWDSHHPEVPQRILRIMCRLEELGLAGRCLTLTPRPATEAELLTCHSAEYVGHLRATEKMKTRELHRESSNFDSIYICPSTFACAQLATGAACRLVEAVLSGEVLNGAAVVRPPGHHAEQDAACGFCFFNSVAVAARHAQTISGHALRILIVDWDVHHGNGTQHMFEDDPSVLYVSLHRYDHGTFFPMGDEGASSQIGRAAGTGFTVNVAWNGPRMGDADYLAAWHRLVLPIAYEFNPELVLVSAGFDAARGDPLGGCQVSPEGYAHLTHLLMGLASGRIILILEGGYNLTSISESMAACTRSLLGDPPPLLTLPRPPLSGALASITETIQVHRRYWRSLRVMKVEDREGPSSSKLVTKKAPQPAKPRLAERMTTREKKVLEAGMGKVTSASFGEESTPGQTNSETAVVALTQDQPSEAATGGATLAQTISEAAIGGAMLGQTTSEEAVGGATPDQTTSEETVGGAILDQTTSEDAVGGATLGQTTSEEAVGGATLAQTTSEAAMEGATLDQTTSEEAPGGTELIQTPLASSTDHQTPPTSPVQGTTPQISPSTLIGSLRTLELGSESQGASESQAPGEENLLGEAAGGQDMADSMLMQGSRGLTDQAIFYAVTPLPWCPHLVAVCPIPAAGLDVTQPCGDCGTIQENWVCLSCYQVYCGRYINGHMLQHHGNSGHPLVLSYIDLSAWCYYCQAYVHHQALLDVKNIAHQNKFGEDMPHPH

EC50 (MM1S; MM1S cells) [nM]	Structure (SMILES)	IC50 [1] [nM]	EC50 (CCRF-CEM) [nM]	EC50 (HEL-92.1.7) [nM]	EC50 (MDAMB231) [nM]	EC50 (A375) [nM]	EC50 (OCI-AML3) [nM]	EC50 (MV-4-11) [nM]	EC50 (MM1S) [nM]	Metabolic stability MLM % remaining in 30 min [2] [%]	Metabolic stability HLM % remaining in 30 min [3] [%]	IC50 (LSD1) [nM]	other results
–	O=C(NO)c1cnc(N2CCC(CNC3CC3c3ccc(F)cc3)CC2)nc1 (centres unmarked) [Example 8, 2-(4-(((2-(4-fluorophenyl)cyclopropyl)amino)methyl)piperidin-1-yl)-N-hydroxypyrimidine-5-carboxamide TFA Salt]	88	119	42	193	698	46	48	7	52	88	–	–
–	O=C(NO)c1cnc(N2CCC(NC3CC3c3ccc(OCc4ccc(F)cc4)cc3)CC2)nc1 (centres unmarked) [Example 12, 2-(4-((2-(4-((4-fluorobenzyl)oxy)phenyl)cyclopropyl)amino)piperidin-1-yl)-N-hydroxypyrimidine-5-carboxamide TFA Salt]	–	375	4	1300	2800	41	9	11	85	95	–	–
–	O=C(NO)c1ccc(CCCN2CCC(CNC3CC3c3ccccc3)CC2)cc1 (centres unmarked) [Example 43, N-hydroxy-4-(3-(4-(((2-phenylcyclopropyl)amino)methyl)piperidin-1-yl)propyl)benzamide TFA Salt]	–	493	1	747	1030	115	2	–	56	40	–	–
–	COc1ccc(C2CC2NCC2CCN(CCCc3ccc(C(=O)NO)cc3)CC2)cc1 (centres unmarked) [Example 51, N-hydroxy-4-(3-(4-(((2-(4-methoxyphenyl)cyclopropyl)amino)methyl)piperidin-1-yl)propyl)benzamide TFA Salt]	38	–	3	–	–	14	31	–	91	74	6	–
–	O=C(NO)c1ccc(CCCN2CCC(CNC3CC3c3ccc(-c4ccc(Cl)cc4)cc3)CC2)cc1 (centres unmarked) [Example 56, 4-(3-(4-(((2-(4′-chloro-[1,1′-biphenyl]-4-yl)cyclopropyl)amino)methyl)piperidin-1-yl)propyl)-N-hydroxybenzamide TFA Salt]	19	–	10	–	–	10	7	–	75	87	2	–
49	O=C(NO)c1ccc(CCCN2CCC(CNC3CC3c3ccc(-c4cncnc4)cc3)CC2)cc1 (centres unmarked) [Example 61, N-hydroxy-4-(3-(4-(((2-(4-(pyrimidin-5-yl)phenyl)cyclopropyl)amino)methyl)piperidin-1-yl)propyl)benzamide TFA Salt]	121	–	–	–	–	–	–	–	66	77	12	AUC IV ([4]; IV 10 mg/kg): 1287 ng/mL/h; AUC PO ([4]; PO 50 mg/kg): 1920 ng/mL/h; C0 ([4]; IV 10 mg/kg): 5340 ng/mL; Vd ([4]; IV 10 mg/kg): 30 L/kg; Cmax ([4]; IV 10 mg/kg, read-out: CMax IV): 2760 ng/mL; clearance ([4]; IV 10 mg/kg): 125 mL/min/kg; half-life ([4]; IV 10 mg/kg, read-out: t1/2 IV (converted)): 2.8 h; Cmax ([4]; PO 50 mg/kg, read-out: CMax PO): 771 ng/mL; half-life [4, 5]: 1.48 h; bioavailability ([4]; dose IV/PO 10/50 mg/kg): 30%
–	COc1ccc(C2CC2NCc2cn3c(n2)CN(CCCc2ccc(C(=O)NO)cc2)CC3)cc1 (centres unmarked) [Example 71, N-hydroxy-4-(3-(2-(((2-(4-methoxyphenyl)cyclopropyl)amino)methyl)-5,6-dihydroimidazo[1,2-a]pyrazin-7(8H)-yl)propyl)benzamide TFA Salt]	28	–	6050	–	–	732	990	–	< 5	73	1100	–
–	O=C(NO)c1ccc(CCCN2CCn3cc(CNC4CC4c4ccc(F)cc4)nc3C2)cc1 (centres unmarked) [Example 72, 4-(3-(2-(((2-(4-fluorophenyl)cyclopropyl)amino)methyl)-5,6-dihydroimidazo[1,2-a]pyrazin-7(8H)-yl)propyl)-N-hydroxybenzamide TFA Salt]	18	–	4800	–	–	573	978	343	< 5	67	730	–
77	O=C(NO)c1ccc(/C=C/C(=O)N2CCC(CN[C@@H]3C[C@H]3c3ccc(F)cc3)CC2)cc1 [Example 115A, 4-((E)-3-(4-((((1R,2S)-2-(4-fluorophenyl)cyclopropyl)amino)methyl)piperidin-1-yl)-3-oxoprop-1-en-1-yl)-N-hydroxybenzamide TFA Salt]	50	–	–	–	–	–	–	–	90	59	225	AUC IV ([4]; IV 2 mg/kg): 301 ng/mL/h; AUC PO ([4]; PO 10 mg/kg): 638 ng/mL/h; C0 ([4]; IV 2 mg/kg): 452 ng/mL; Vd ([4]; IV 2 mg/kg): 8 L/kg; Cmax ([4]; IV 2 mg/kg, read-out: CMax IV): 452 ng/mL; clearance ([4]; IV 2 mg/kg): 108 mL/min/kg; half-life [4, 6]: 0.87 h; Cmax ([4]; PO 10 mg/kg, read-out: CMax PO): 354 ng/mL; half-life ([4]; PO 10 mg/kg, read-out: t1/2 PO (converted)): 2.78 h; bioavailability ([4]; dose IV/PO 2/10 mg/kg): 43%
120	Cn1cc(-c2ccc(C3CC3NCC3CCN(Cc4ccc(C(=O)Nc5ccccc5N)cc4)CC3)cc2)cn1 (centres unmarked) [Example 142, N-(2-aminophenyl)-4-((4-(((2-(4-(1-methyl-1H-pyrazol-4-yl)phenyl)cyclopropyl)amino)methyl)piperidin-1-yl)methyl)benzamide TFA Salt]	> 10000	–	–	–	–	–	–	–	52	72	12	AUC IV ([4]; IV 2 mg/kg): 357 ng/mL/h; AUC PO ([4]; PO 50 mg/kg): 3217 ng/mL/h; C0 ([4]; IV 2 mg/kg): 198 ng/mL; Vd ([4]; IV 2 mg/kg): 25 L/kg; Cmax ([4]; IV 2 mg/kg, read-out: CMax IV): 150 ng/mL; clearance ([4]; IV 2 mg/kg): 88 mL/min/kg; half-life [4, 6]: 12.6 h; Cmax ([4]; PO 50 mg/kg, read-out: CMax PO): 555 ng/mL; half-life [4, 5]: 6.7 h; bioavailability ([4]; dose IV/PO 2/50 mg/kg): 36%
